Measured values reported in ChEMBL document CHEMBL1201862, “PubChem BioAssay data set” (2004).
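Five compound concentrations were applied to cells in 96-well plates for 48 hours; endpoints were derived by simple linear interpolation of the resulting dose-response curve. The concentration for 50% growth inhibition is given as GI50.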 Calls of active or inactive are those of the source. Rule as the data show it: active = GI50 up to about 1.1 µM and inactive = higher.

Legend:
Experiment in all cases: growth of human tumour cells (NCI), 48 h
BT-549 = system: BT-549
M14 = system: M14
OVCAR-8 = system: OVCAR-8
U-251 = system: U-251
T47D = system: T47D
MDA-MB-435 = system: MDA-MB-435
HL-60 = system: HL-60
786-0 = system: 786-0
HT-29 = system: HT-29
UACC-257 = system: UACC-257
NCI-H460 = system: NCI-H460
MDA-N = system: MDA-N
HOP-92 = system: HOP-92
UACC-62 = system: UACC-62
SF-295 = system: SF-295
COLO 205 = system: COLO 205
SK-MEL-28 = system: SK-MEL-28
HCT-15 = system: HCT-15
MDA-MB-231 = system: MDA-MB-231
SR = system: SR

SMILES	GI50 (BT-549)	GI50 (M14)	GI50 (OVCAR-8)	GI50 (U-251)	GI50 (T47D)	GI50 (MDA-MB-435)	GI50 (HL-60)	GI50 (786-0)	GI50 (HT-29)	GI50 (UACC-257)	GI50 (NCI-H460)	GI50 (MDA-N)	GI50 (HOP-92)	GI50 (UACC-62)	GI50 (SF-295)	GI50 (COLO 205)	GI50 (SK-MEL-28)	GI50 (HCT-15) [µM]	GI50 (MDA-MB-231)	GI50 (SR)
Cn1cnc2c1c(=O)n(CCNCCO)c(=O)n2C	> 100 µM (inactive)	> 100 µM (inactive)	> 100 µM (inactive)	> 100 µM (inactive)	> 100 µM (inactive)	> 100 µM (inactive)	> 100 µM (inactive)	> 100 µM (inactive)	> 100 µM (inactive)	> 100 µM (inactive)	> 100 µM (inactive)	> 100 µM (inactive)	> 100 µM (inactive)	> 100 µM (inactive)	> 100 µM (inactive)	> 100 µM (inactive)	> 100 µM (inactive)	> 100	> 100 µM (inactive)	
O=C1c2ccccc2C(=O)c2sc(Nc3ccccc3Cl)nc21	16 µM (inactive)	5.36 µM (inactive)	5.85 µM (inactive)	4.93 µM (inactive)	11.1 µM (inactive)		0.713 µM (active)	14.6 µM (inactive)	21.5 µM (inactive)	8.34 µM (inactive)	12.9 µM (inactive)	2.41 µM (inactive)	13.2 µM (inactive)	7.4 µM (inactive)	16.1 µM (inactive)	14.6 µM (inactive)	15.1 µM (inactive)	9.38	3.78 µM (inactive)	3.93 µM (inactive)
O=C1C=CC[C@H](/C=C/C[C@@H](O)C[C@H](O)/C=C/c2ccccc2)O1	10.8 µM (inactive)	14.4 µM (inactive)	14.4 µM (inactive)	11.9 µM (inactive)	14.3 µM (inactive)	11.3 µM (inactive)	3.56 µM (inactive)	16.1 µM (inactive)	11.4 µM (inactive)	13.9 µM (inactive)	15.3 µM (inactive)	12.4 µM (inactive)	2.56 µM (inactive)	15 µM (inactive)	15.7 µM (inactive)	7.87 µM (inactive)	16.7 µM (inactive)	10.5	10.5 µM (inactive)	
OCCNCNc1nc(NCNCCO)nc(N(CNCCO)CNCCO)n1	21.1 µM (inactive)	19 µM (inactive)	24.3 µM (inactive)	21.1 µM (inactive)	23.7 µM (inactive)	18.2 µM (inactive)	20.5 µM (inactive)	17.7 µM (inactive)	21.7 µM (inactive)	18.2 µM (inactive)	21.9 µM (inactive)	19.2 µM (inactive)	21.9 µM (inactive)	18.8 µM (inactive)	30.6 µM (inactive)	15.7 µM (inactive)	24.4 µM (inactive)	25.2	22.8 µM (inactive)	
CC(NC(=O)C(N)CC(=O)O)NC(=O)C1CCC1 (configuration not stated)	> 100 µM (inactive)	> 100 µM (inactive)	> 100 µM (inactive)	> 100 µM (inactive)	> 100 µM (inactive)	> 100 µM (inactive)		> 100 µM (inactive)	> 100 µM (inactive)	> 100 µM (inactive)	> 100 µM (inactive)	> 100 µM (inactive)		> 100 µM (inactive)		> 100 µM (inactive)	> 100 µM (inactive)	> 100	> 100 µM (inactive)	
C#CCNC(CS)C(=O)O (configuration not stated)	> 100 µM (inactive)	> 100 µM (inactive)	> 100 µM (inactive)	> 100 µM (inactive)	> 100 µM (inactive)	> 100 µM (inactive)	> 100 µM (inactive)	> 100 µM (inactive)	> 100 µM (inactive)	> 100 µM (inactive)	> 100 µM (inactive)		> 100 µM (inactive)	> 100 µM (inactive)	> 100 µM (inactive)	> 100 µM (inactive)	> 100 µM (inactive)	> 100	> 100 µM (inactive)	> 100 µM (inactive)
CCOC(=O)C(=[N+]=[N-])C(=O)CSC#N	86.9 µM (inactive)	23.8 µM (inactive)	46 µM (inactive)	46.5 µM (inactive)	> 100 µM (inactive)	22.6 µM (inactive)	39.3 µM (inactive)	> 100 µM (inactive)	39.3 µM (inactive)	71.4 µM (inactive)		36 µM (inactive)		69.5 µM (inactive)	> 100 µM (inactive)	> 100 µM (inactive)	> 100 µM (inactive)	51.4	82.2 µM (inactive)	
COc1ccc2c3c([nH]c2c1)[C@H]1C[C@H]2[C@H](C[C@@H](O)[C@H](OC)[C@H]2C(=O)O)CN1CC3	> 100 µM (inactive)	> 100 µM (inactive)	> 100 µM (inactive)	> 100 µM (inactive)	> 100 µM (inactive)	> 100 µM (inactive)		> 100 µM (inactive)	> 100 µM (inactive)	> 100 µM (inactive)	> 100 µM (inactive)	> 100 µM (inactive)	> 100 µM (inactive)	> 100 µM (inactive)	> 100 µM (inactive)	> 100 µM (inactive)	> 100 µM (inactive)	> 100	> 100 µM (inactive)	> 100 µM (inactive)
